Source: patent publication US5639887A, “MDR reversal agents” (priority 1995, dated 1997)
Values after ≈ are worked out from the molar mass of the structure shown.

Columns and labels:
[1] = system: bisantrene-resistant human ovarian carcinoma cells S1-B1-20 (OVCAR-3 subclone); assay: Screening assay for reversal agents: Difference Score with/without 20 μM bisantrene; type: cell-based; settings: alone vs with 20 μM bisantrene, 3 days, difference in % cell survival; for Difference Score at 1 microM: test agent 1 microM; for Difference Score at 10 microM: test agent 10 microM; for Difference Score at 20 microM: test agent 20 microM
Experimental: Such cells are sorted by a fluorescent activated cell sorter (FACS; Becton Dickinson Model 440).
Cells, prepared by trypsinization, are plated at 20,000 cells/well in media with and without bisantrene. Then, test agents at varying concentrations are added to the cells. […] Completed plates are incubated for 3 days at 37° C. in a moisturized 7% CO2 atmosphere. […] Dye content/well is read at 540 nm in a microtiter reader. Values are electronically processed, % cell survival compared to untreated cells is computed, and the results are expressed as the difference between these values. Experiments are run in the presence of the test agent alone and the test agent in combination with 20 μM bisantrene. The Difference Score between those two experiments is reported below for 3 different concentrations of test agent.

[2] = Limit of solubility of bisantrene; type: physicochemical; settings: cell culture medium; cell culture maintenance
[3] = system: multiple drug resistance tumor cells; settings: background, resensitizing agents for treatment of cancer; cited from earlier work

| Compound | Difference Score at 1 microM [1] | Difference Score at 10 microM [1] | Difference Score at 20 microM [1] | solubility [2] [µM] | toxic side effects in the clinic [3] |
| --- | --- | --- | --- | --- | --- |
| 2-[7-(4-Fluorophenyl)-7-[(4-methylphenyl)thio]heptyl]-1,2,3,4-tetrahydro-6,7-isoquinoline [Example 95] | 28 | 71 | 57 |  |  |
| COc1ccc(C(C#N)(CCCCCN2Cc3cc(OC)c(OC)cc3C2)SC2CCCCC2)cc1OC (stereo not drawn) [Example 86, α-(Cyclohexylthio)-α-(3,4-dimethoxyphenyl)-1,3-dihydro5,6-dimethoxy-2(1H)-isoindoleheptane nitrile] | 83 | 77 | 29 |  |  |
| COc1ccc(C(C#N)(CCCCCN2Cc3cc(OC)c(OC)cc3C2)SC2CCCCC2)cc1OC.Cl (stereo not drawn) [Example 120, α-(Cyclohexylthio)-α-(3,4-dimethoxyphenyl)-1,3-dihydro 5,6-dimethoxy-2(1H)-isoindoleheptanenitrile hydrochloride] | 83 | 59 | 1 |  |  |
| C(=N\NC1=NCCN1)/c1c2ccccc2c(/C=N/NC2=NCCN2)c2ccccc12 [bisantrene] |  |  |  | 20 (≈ 7.97 µg/mL) |  |
| CN1CCN(CCCN2c3ccccc3Sc3ccc(C(F)(F)F)cc32)CC1 [trifluoroperizine] |  |  |  |  | limited by toxic side effects |
